# Test results: US10322112B2, “Compound combinations for attenuation of bacterial virulence” (priority 2016, dated 2019)
# Tests used:
# P. aeruginosa (PAO1) [1] = assay: Rhamnolipid assay; assay type: cell-based, Pseudomonas aeruginosa; conditions: MOPS Glutamate and Glucose media, complete or iron/phosphate depleted, 17 h, 100 μM (compounds 1, 2, 3), 25 μM (compound 4), relative to DMSO
# Experimental: (§1) A. Pyocyanin Assay Protocol. The amount of pyocyanin in P. aeruginosa culture supernatants was measured following a reported protocol (O'Loughlin et al., 2013) with modifications. A 10 mL overnight culture of P. aeruginosa PAO1 was grown for 16 h. DMSO stock solutions of test compounds (20 mM) were prepared, and 10 μL or 5 μL aliquots were added to sterile 15 mL borosilicate glass test tubes. An inoculating culture was prepared by diluting the overnight culture 1:100 into freshly prepared assay medium (see above), and 2 mL aliquots of this subculture were added to each test tube (0.5% DMSO, final). The cultures were grown for 17 h, and the final cell density measured by reading OD600. Relative pyocyanin levels were measured by first pelleting 1.5 mL of well-mixed culture at 4,000 g for 10 min, transferring 200 μL of the resulting supernatant to a clear, plastic 96-well microtiter plate, and reading absorbance at 695 nm. Media background absorbance (measured from a “no bacteria” control) was subtracted, the resulting values growth normalized by dividing by the final OD600378, and the data plotted relative to a DMSO-treated positive control. B. Rhamnolipid Assay Protocol. Rhamnolipid was quantified following a reported protocol (Koch et al., 1991) with modifications. Assay cultures were prepared and grown in an identical manner to the pyocyanin assay above. Aliquots of the final culture supernatant (1 mL) were transferred to 1 dram glass vials and extracted twice with 1 mL diethyl ether. The pooled organic fractions were evaporated to dryness, and the resulting residue reconstituted in 200 μL de-ionized water. […] After briefly cooling to room temperature, 200 μL of the resulting yellow to yellow-orange solution was transferred to a clear 96-well microtiter plate, and the absorbance at 421 nm measured. Media background absorbance (measured from a “no bacteria” control) was subtracted, the resulting values growth normalized by dividing by the final OD600, and the data plotted relative to a DMSO-treated positive control. […] The amount of elastase B in P. aeruginosa culture supernatants was measured following a reported protocol (Geske et al., 2007) with modifications. […] To quantify elastase B activity, the undigested elastin was pelleted by centrifugation of the assay plate at 1,500 g for 10 min, after which 100 μL of the supernatant was transferred to a new, clear 96-well plate, and the absorbance at 490 nm measured. Media background absorbance (measured from a “no bacteria” control) was subtracted, the resulting values growth normalized by dividing by the final OD600, and the data plotted relative to a DMSO-treated positive control.
# P. aeruginosa (PAO1) [2] = assay: Elastase B assay; assay type: cell-based, Pseudomonas aeruginosa; conditions: MOPS Glutamate and Glucose media, complete or iron/phosphate depleted, 17 h, 100 μM (compounds 1, 2, 3), relative to DMSO
# Experimental: as §1
# LasR = target: T1, LasR (Pseudomonas aeruginosa, UniProt P25084); assay: E. coli reporter gene primary agonism assay, LasR; assay type: cell-based; conditions: compounds at 100 mm; E. coli reporter strain JLD271/pJN105L/pSC11; 100 mm OdDHL = 100%; error ±10%
# T1 construct: expressed in transfected cells; host or cells: E. coli JLD271
# T1 sequence (P25084 whole entry): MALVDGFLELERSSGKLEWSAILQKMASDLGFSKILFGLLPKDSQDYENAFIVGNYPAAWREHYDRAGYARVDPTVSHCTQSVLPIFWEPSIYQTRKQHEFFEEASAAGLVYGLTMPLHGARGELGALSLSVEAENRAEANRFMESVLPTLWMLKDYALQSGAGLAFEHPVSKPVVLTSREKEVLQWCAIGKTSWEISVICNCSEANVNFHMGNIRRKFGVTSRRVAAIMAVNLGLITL
# Experimental: (§2) Percent agonism of a given non-native inducer in a given bacterium and QS system receptor is measured with resepct to the maximum level of agonism (activation) by the native ligand of that receptor in the given bacterium. Percent antagonism is measured in competitive assays. The QS system of interest is activated to 100% with added or endogenous native ligand and the % antagonism of the non-native inducer is assessed with respect to 100% activation by the native inducer. The native ligand which induces LasR is OdDHL, which induces RhlR is BHL and which induces PqsR is PQS. As described herein and in cited references, assays for assessment of % agonism or % atangonism may be performed in E. coli systems (heterologous) or in the bacterium of interest, e.g., Pseudomonas. Dependent upon the assay system employed native ligand may be endogenously present or it may be exogenously supplied to the assay system. […] In antagonism assays using the native strains with functional QS systems, e.g., those of P. aeruginosa, endogenous native ligand is made in the system, so no native ligand is added. In native strains having one or more non-functional QS systems (mutant strains), e.g., P. aeruginosa mutants with non-functional QS systems, native ligand is added at about 10-100× the EC50 of the native ligand. In the agonism assay, native ligand is added as a control. Details of the assays are provided herein in Example 9 and in references cited in Example 9.
# RhlR = target: T2, RhlR (Pseudomonas aeruginosa, UniProt P54292); assay: E. coli reporter gene primary agonism assay, RhlR; assay type: cell-based; conditions: compounds at 100 mm; 900 mm BHL = 100%; error ±10%; selected data reproduced from Welsh et al., 2015
# T2 construct: expressed in transfected cells; host or cells: E. coli JLD271
# T2 sequence (P54292 whole entry): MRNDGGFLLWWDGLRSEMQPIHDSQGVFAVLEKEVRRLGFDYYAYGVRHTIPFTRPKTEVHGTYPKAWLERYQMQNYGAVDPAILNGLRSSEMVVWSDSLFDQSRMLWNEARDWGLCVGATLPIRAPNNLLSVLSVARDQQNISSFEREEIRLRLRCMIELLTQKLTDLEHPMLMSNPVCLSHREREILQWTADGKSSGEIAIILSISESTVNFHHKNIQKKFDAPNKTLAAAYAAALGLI
# Experimental: as §2
compound,measurement,setting,value
O=C(N[C@H]1CCOC1=O)C1CCCC1 [compound 3],"rhamnolipid production, single compound screens",P. aeruginosa (PAO1) [1],induced additional rhamnolipid and elastase B production
same,"elastase B production, single compound screens",P. aeruginosa (PAO1) [2],induced additional rhamnolipid and elastase B production
same,Activation [%] LasR,LasR,−4%
same,Activation [%] RhlR,RhlR,91%
